{"source": "patent US11357230B2", "about": "“Herbicidal amides” (FMC Corporation, priority 2017, dated 2022)", "assay_type_in_all_cases": "in vivo", "key": {"[1]": {"test_system": "corn (Zea mays)", "assay": "Test A postemergence, corn", "conditions": "approximately 10 d", "excerpt": "(§1) Seeds of plant species selected from barnyardgrass (Echinochloa crus-galli), kochia (Kochia scoparia), ragweed (common ragweed, Ambrosia elatior), ryegrass, Italian (Italian ryegrass, Lolium multiflorum), foxtail, green (green foxtail, Setaria viridis), and pigweed (Amaranthus retroflexus) were planted into a blend of loam soil and sand and treated preemergence with a directed soil spray using test chemicals formulated in a non-phytotoxic solvent mixture which included a surfactant. At the same time, plants selected from these weed species and also wheat (Triticum aestivum), corn (Zea mays), blackgrass (Alopecurus myosuroides), and galium (catchweed bedstraw, Galium aparine) were planted in pots containing the same blend of loam soil and sand and treated with postemergence applications of test chemicals formulated in the same manner. Plants ranged in height from 2 to 10 cm and were in the one- to two-leaf stage for the postemergence treatment. Treated plants and untreated controls were maintained in a greenhouse for approximately 10 d, after which time all treated plants were compared to untreated controls and visually evaluated for injury. Plant response ratings, summarized in Table A, are based on a 0 to 100 scale where 0 is no effect and 100 is complete control. A dash (-) response means no test result."}, "[2]": {"test_system": "kochia (Kochia scoparia)", "assay": "Test A postemergence, kochia", "conditions": "approximately 10 d", "excerpt": "as §1"}, "[3]": {"test_system": "kochia (Kochia scoparia)", "assay": "Test A preemergence, kochia", "conditions": "approximately 10 d", "excerpt": "as §1"}, "[4]": {"test_system": "galium (catchweed bedstraw, Galium aparine)", "assay": "Test A postemergence, galium", "conditions": "approximately 10 d", "excerpt": "as §1"}, "[5]": {"test_system": "ryegrass, Italian (Italian ryegrass, Lolium multiflorum)", "assay": "Test A preemergence, Italian ryegrass", "conditions": "approximately 10 d", "excerpt": "as §1"}, "[6]": {"test_system": "blackgrass (Alopecurus myosuroides)", "assay": "Test A postemergence, blackgrass", "conditions": "approximately 10 d", "excerpt": "as §1"}, "[7]": {"test_system": "barnyardgrass (Echinochloa crus-galli)", "assay": "Test A preemergence, barnyardgrass", "conditions": "approximately 10 d", "excerpt": "as §1"}, "[8]": {"test_system": "wheat (Triticum aestivum)", "assay": "Test A postemergence, wheat", "conditions": "approximately 10 d", "excerpt": "as §1"}, "[9]": {"test_system": "barnyardgrass (Echinochloa crus-galli)", "assay": "Test B flooded paddy test, barnyardgrass", "conditions": "250 g ai/ha, Flood (paddy water), 13 to 15 d", "method": "(§2) Plant species in the flooded paddy test selected from rice (Oryza sativa), sedge, umbrella (small-flower umbrella sedge, Cyperus difformis), ducksalad (Heteranthera limosa), and barnyardgrass (Echinochloa crus-galli) were grown to the 2-leaf stage for testing. At time of treatment, test pots were flooded to 3 cm above the soil surface, treated by application of test compounds directly to the paddy water, and then maintained at that water depth for the duration of the test. Treated plants and controls were maintained in a greenhouse for 13 to 15 d, after which time all species were compared to controls and visually evaluated. Plant response ratings, summarized in Table B, are based on a scale of 0 to 100 where 0 is no effect and 100 is complete control. A dash (-) response means no test result."}, "[10]": {"test_system": "rice (Oryza sativa)", "assay": "Test B flooded paddy test, rice", "conditions": "250 g ai/ha, Flood (paddy water), 13 to 15 d", "method": "as §2"}, "[11]": {"test_system": "pigweed (Amaranthus retroflexus)", "assay": "Test A postemergence, pigweed", "conditions": "approximately 10 d", "excerpt": "as §1"}, "[12]": {"test_system": "Foxtail, Giant", "assay": "Test A preemergence, giant foxtail", "conditions": "approximately 10 d"}, "[13]": {"test_system": "ragweed (common ragweed, Ambrosia elatior)", "assay": "Test A preemergence, ragweed", "conditions": "125 g ai/ha, approximately 10 d", "excerpt": "as §1"}, "[14]": {"test_system": "ragweed (common ragweed, Ambrosia elatior)", "assay": "Test A postemergence, ragweed", "conditions": "approximately 10 d", "excerpt": "as §1"}, "[15]": {"test_system": "Foxtail, Giant", "assay": "Test A postemergence, giant foxtail", "conditions": "approximately 10 d"}, "[16]": {"test_system": "barnyardgrass (Echinochloa crus-galli)", "assay": "Test A postemergence, barnyardgrass", "conditions": "approximately 10 d", "excerpt": "as §1"}, "[17]": {"test_system": "ducksalad (Heteranthera limosa)", "assay": "Test B flooded paddy test, ducksalad", "conditions": "250 g ai/ha, Flood (paddy water), 13 to 15 d", "method": "as §2"}, "[18]": {"test_system": "pigweed (Amaranthus retroflexus)", "assay": "Test A preemergence, pigweed", "conditions": "approximately 10 d", "excerpt": "as §1"}, "[19]": {"test_system": "sedge, umbrella (small-flower umbrella sedge, Cyperus difformis)", "assay": "Test B flooded paddy test, umbrella sedge", "conditions": "250 g ai/ha, Flood (paddy water), 13 to 15 d", "method": "as §2"}, "[20]": {"test_system": "ryegrass, Italian (Italian ryegrass, Lolium multiflorum)", "assay": "Test A postemergence, Italian ryegrass", "conditions": "approximately 10 d", "excerpt": "as §1"}}, "data": [{"smiles": "CN1C[C@H](c2ccc(C(F)(F)F)cc2)[C@@H](C(=O)Nc2cccc(F)c2F)C1=NNC(=O)OC(C)(C)C", "note": "(relative stereo) [Compound 8]", "values": [{"measurement": "Plant response rating (0 to 100 scale, 0 is no effect, 100 is complete control)", "setting": "[1]; 31 g ai/ha", "value": 20}, {"measurement": "Plant response rating (0 to 100 scale, 0 is no effect, 100 is complete control)", "setting": "[1]; 125 g ai/ha", "value": 70}, {"measurement": "Plant response rating (0 to 100 scale, 0 is no effect, 100 is complete control)", "setting": "[2]; 31 g ai/ha", "value": 0}, {"measurement": "Plant response rating (0 to 100 scale, 0 is no effect, 100 is complete control)", "setting": "[2]; 125 g ai/ha", "value": 0}, {"measurement": "Plant response rating (0 to 100 scale, 0 is no effect, 100 is complete control)", "setting": "[3]; 31 g ai/ha", "value": 20}, {"measurement": "Plant response rating (0 to 100 scale, 0 is no effect, 100 is complete control)", "setting": "[3]; 125 g ai/ha", "value": 80}, {"measurement": "Plant response rating (0 to 100 scale, 0 is no effect, 100 is complete control)", "setting": "[4]; 31 g ai/ha", "value": 60}, {"measurement": "Plant response rating (0 to 100 scale, 0 is no effect, 100 is complete control)", "setting": "[4]; 125 g ai/ha", "value": 70}, {"measurement": "Plant response rating (0 to 100 scale, 0 is no effect, 100 is complete control)", "setting": "[5]; 31 g ai/ha", "value": 20}, {"measurement": "Plant response rating (0 to 100 scale, 0 is no effect, 100 is complete control)", "setting": "[5]; 125 g ai/ha", "value": 70}, {"measurement": "Plant response rating (0 to 100 scale, 0 is no effect, 100 is complete control)", "setting": "[6]; 31 g ai/ha", "value": 30}, {"measurement": "Plant response rating (0 to 100 scale, 0 is no effect, 100 is complete control)", "setting": "[6]; 125 g ai/ha", "value": 60}, {"measurement": "Plant response rating (0 to 100 scale, 0 is no effect, 100 is complete control)", "setting": "[7]; 31 g ai/ha", "value": 90}, {"measurement": "Plant response rating (0 to 100 scale, 0 is no effect, 100 is complete control)", "setting": "[7]; 125 g ai/ha", "value": 90}, {"measurement": "Plant response rating (0 to 100 scale, 0 is no effect, 100 is complete control)", "setting": "[8]; 31 g ai/ha", "value": 0}, {"measurement": "Plant response rating (0 to 100 scale, 0 is no effect, 100 is complete control)", "setting": "[8]; 125 g ai/ha", "value": 40}, {"measurement": "Plant response rating (scale of 0 to 100, 0 is no effect, 100 is complete control)", "setting": "[9]", "value": 75}, {"measurement": "Plant response rating (scale of 0 to 100, 0 is no effect, 100 is complete control)", "setting": "[10]", "value": 0}, {"measurement": "Plant response rating (0 to 100 scale, 0 is no effect, 100 is complete control)", "setting": "[11]; 31 g ai/ha", "value": 30}, {"measurement": "Plant response rating (0 to 100 scale, 0 is no effect, 100 is complete control)", "setting": "[11]; 125 g ai/ha", "value": 40}, {"measurement": "Plant response rating (0 to 100 scale, 0 is no effect, 100 is complete control)", "setting": "[12]; 31 g ai/ha", "value": 90}, {"measurement": "Plant response rating (0 to 100 scale, 0 is no effect, 100 is complete control)", "setting": "[12]; 125 g ai/ha", "value": 90}, {"measurement": "Plant response rating (0 to 100 scale, 0 is no effect, 100 is complete control)", "setting": "[13]", "value": 20}, {"measurement": "Plant response rating (0 to 100 scale, 0 is no effect, 100 is complete control)", "setting": "[14]; 31 g ai/ha", "value": 0}, {"measurement": "Plant response rating (0 to 100 scale, 0 is no effect, 100 is complete control)", "setting": "[14]; 125 g ai/ha", "value": 0}, {"measurement": "Plant response rating (0 to 100 scale, 0 is no effect, 100 is complete control)", "setting": "[15]; 31 g ai/ha", "value": 50}, {"measurement": "Plant response rating (0 to 100 scale, 0 is no effect, 100 is complete control)", "setting": "[15]; 125 g ai/ha", "value": 80}, {"measurement": "Plant response rating (0 to 100 scale, 0 is no effect, 100 is complete control)", "setting": "[16]; 31 g ai/ha", "value": 60}, {"measurement": "Plant response rating (0 to 100 scale, 0 is no effect, 100 is complete control)", "setting": "[16]; 125 g ai/ha", "value": 80}, {"measurement": "Plant response rating (scale of 0 to 100, 0 is no effect, 100 is complete control)", "setting": "[17]", "value": 60}, {"measurement": "Plant response rating (0 to 100 scale, 0 is no effect, 100 is complete control)", "setting": "[18]; 31 g ai/ha", "value": 30}, {"measurement": "Plant response rating (0 to 100 scale, 0 is no effect, 100 is complete control)", "setting": "[18]; 125 g ai/ha", "value": 80}, {"measurement": "Plant response rating (scale of 0 to 100, 0 is no effect, 100 is complete control)", "setting": "[19]", "value": 0}, {"measurement": "Plant response rating (0 to 100 scale, 0 is no effect, 100 is complete control)", "setting": "[20]; 31 g ai/ha", "value": 10}, {"measurement": "Plant response rating (0 to 100 scale, 0 is no effect, 100 is complete control)", "setting": "[20]; 125 g ai/ha", "value": 60}]}]}
